Laboratory results: the supplement of paper PMC11061612

Key:
Capivasertib = compound: C1CN(CCC1(C(=O)N[C@@H](CCO)C2=CC=C(C=C2)Cl)N)C3=NC=NC4=C3C=CN4 [Capivasertib]; conditions: max 10 µM
Outline: (§1)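 Cancer cell lines were seeded into 1536-well plates in 7.5 μl medium (DMEM/F12 or RPMI, 10% FBS), held 24 hours at 37°C and 5% CO2, and dosed for 72 hours with final DMSO typically 0.2%. Luminescence from CellTiter-Glo 2.0, scaled between blank-well and DMSO-well means, served as viability. The single-agent IC50 was obtained from dose-response fits with a non-linear mixed effects model, each fit being a two-parameter logistic curve.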

AZD1775 = compound: C=CCn1c(=O)c2cnc(Nc3ccc(N4CCN(C)CC4)cc3)nc2n1-c1cccc(C(C)(C)O)n1 [AZD1775]; conditions: max 3 µM
Outline: as §1

Trametinib = compound: CC(=O)Nc1cccc(-n2c(=O)n(C3CC3)c(=O)c3c(Nc4ccc(I)cc4F)n(C)c(=O)c(C)c32)c1 [Trametinib]; conditions: max 1 µM
Outline: as §1

Palbociclib = compound: CC(=O)c1c(C)c2cnc(Nc3ccc(N4CCNCC4)cn3)nc2n(C2CCCC2)c1=O [Palbociclib]; conditions: max 10 µM
Outline: as §1

AZD1390 = compound: CC(C)n1c(=O)n(C)c2cnc3cc(F)c(-c4ccc(OCCCN5CCCCC5)nc4)cc3c21 [AZD1390]; conditions: max 0.3 µM
Outline: as §1

Venetoclax = compound: CC1(C)CCC(CN2CCN(c3ccc(C(=O)NS(=O)(=O)c4ccc(NCC5CCOCC5)c([N+](=O)[O-])c4)c(Oc4cnc5[nH]ccc5c4)c3)CC2)=C(c2ccc(Cl)cc2)C1 [Venetoclax]; conditions: max 1 µM
Outline: as §1

Dasatinib = compound: CC1=C(C(=CC=C1)Cl)NC(=O)C2=CN=C(S2)NC3=CC(=NC(=N3)C)N4CCN(CC4)CCO [Dasatinib]; conditions: max 2 µM
Outline: as §1

SG3199 = compound: CC1=CN2[C@@H](C1)C=NC3=CC(=C(C=C3C2=O)OC)OCCCCCOC4=C(C=C5C(=C4)N=C[C@@H]6CC(=CN6C5=O)C)OC [SG3199]; conditions: max 0.001 µM
Outline: as §1

AZD2811 = compound: CCN(CCO)CCCOc1ccc2c(Nc3cc(CC(=O)Nc4cccc(F)c4)[nH]n3)ncnc2c1 [AZD2811]; conditions: max 1 µM
Outline: as §1

SN-38 = compound: CCc1c2c(nc3ccc(O)cc13)-c1cc3c(c(=O)n1C2)COC(=O)[C@]3(O)CC [SN-38]; conditions: max 0.3 µM
Outline: as §1

AZD0156 = compound: CN(C)CCCOc1ccc(-c2ccc3ncc4c(c3c2)n(C2CCOCC2)c(=O)n4C)cn1 [AZD0156]; conditions: max 3 µM
Outline: as §1

AZD4320 = compound: CN(CC[C@H](CSC1=CC=CC=C1)NC2=C(C=C(C=C2)S(=O)(=O)NC(=O)C3=CC=C(C=C3)N4CCC(CC4)[C@H](C5=CC=CC=C5C6=CC=C(C=C6)Cl)O)S(=O)(=O)C(F)(F)F)CCO [AZD4320]; conditions: max 1 µM
Outline: as §1

Alisertib = compound: COc1cc(Nc2ncc3c(n2)-c2ccc(Cl)cc2C(c2c(F)cccc2OC)=NC3)ccc1C(=O)O [Alisertib]; conditions: max 10 µM
Outline: as §1

Gefitinib = compound: COc1cc2ncnc(Nc3ccc(F)c(Cl)c3)c2cc1OCCCN1CCOCC1 [Gefitinib]; conditions: max 10 µM
Outline: as §1

Prexasertib = compound: COc1cccc(OCCCN)c1-c1cc(Nc2cnc(C#N)cn2)n[nH]1 [Prexasertib]; conditions: max 1 µM
Outline: as §1

Doxorubicin = compound: COc1cccc2c1C(=O)c1c(O)c3c(c(O)c1C2=O)C[C@@](O)(C(=O)CO)C[C@@H]3O[C@H]1C[C@H](N)[C@H](O)[C@H](C)O1 [Doxorubicin]; conditions: max 1 µM
Outline: as §1

AZD5153 = compound: COc1nnc2ccc(N3CCC(c4ccc(OCCN5CCN(C)C(=O)[C@H]5C)cc4)CC3)nn12 [AZD5153]; conditions: max 1 µM
Outline: as §1

Lapatinib = compound: CS(=O)(=O)CCNCc1ccc(-c2ccc3ncnc(Nc4ccc(OCc5cccc(F)c5)c(Cl)c4)c3c2)o1 [Lapatinib]; conditions: max 10 µM
Outline: as §1

AZD8186 = compound: C[C@@H](Nc1cc(F)cc(F)c1)c1cc(C(=O)N(C)C)cc2c(=O)cc(N3CCOCC3)oc12 [AZD8186]; conditions: max 3 µM
Outline: as §1

Crizotinib = compound: C[C@@H](Oc1cc(-c2cnn(C3CCNCC3)c2)cnc1N)c1c(Cl)ccc(F)c1Cl [Crizotinib]; conditions: max 10 µM
Outline: as §1

Savolitinib = compound: C[C@@H](c1ccc2nccn2c1)n1nnc2ncc(-c3cnn(C)c3)nc21 [Savolitinib]; conditions: max 1 µM
Outline: as §1

AZD6738 = compound: C[C@@H]1COCCN1C2=NC(=NC(=C2)C3(CC3)[S@](=N)(=O)C)C4=C5C=CNC5=NC=C4 [AZD6738]; conditions: max 10 µM
Outline: as §1

AZD5991 = compound: Cc1c2c(nn1C)CSCc1cc(n(C)n1)CSc1cc(c3ccccc3c1)OCCCc1c(C(=O)O)n(C)c3c-2c(Cl)ccc13 [AZD5991]; conditions: max 1 µM
Outline: as §1

AZD7648 = compound: Cc1cc2ncnn2cc1Nc1ncc2c(n1)n(C1CCOCC1)c(=O)n2C [AZD7648]; conditions: max 10 µM
Outline: as §1

Taselisib = compound: Cc1nc(-c2cn3c(n2)-c2ccc(-c4cnn(C(C)(C)C(N)=O)c4)cc2OCC3)n(C(C)C)n1 [Taselisib]; conditions: max 10 µM
Outline: as §1

Selumetinib = compound: Cn1cnc2c(F)c(Nc3ccc(Br)cc3Cl)c(C(=O)NOCCO)cc21 [Selumetinib]; conditions: max 10 µM
Outline: as §1

Olaparib = compound: O=C(c1cc(Cc2n[nH]c(=O)c3ccccc23)ccc1F)N1CCN(C(=O)C2CC2)CC1 [Olaparib]; conditions: max 10 µM
Outline: as §1

MK-2206 = compound: NC1(c2ccc(-c3nc4ccn5c(=O)[nH]nc5c4cc3-c3ccccc3)cc2)CCC1 [MK-2206]; conditions: max 10 µM
Outline: as §1

Cell Line	IC50, cell viability 72 h (Capivasertib)	IC50, cell viability 72 h (AZD1775)	IC50, cell viability 72 h (Trametinib)	IC50, cell viability 72 h (Palbociclib)	IC50, cell viability 72 h (AZD1390)	IC50, cell viability 72 h (Venetoclax)	IC50, cell viability 72 h (Dasatinib)	IC50, cell viability 72 h (SG3199)	IC50, cell viability 72 h (AZD2811)	IC50, cell viability 72 h (SN-38)	IC50, cell viability 72 h (AZD0156)	IC50, cell viability 72 h (AZD4320)	IC50, cell viability 72 h (Alisertib)	IC50, cell viability 72 h (Gefitinib)	IC50, cell viability 72 h (Prexasertib)	IC50, cell viability 72 h (Doxorubicin)	IC50, cell viability 72 h (AZD5153)	IC50, cell viability 72 h (Lapatinib)	IC50, cell viability 72 h (AZD8186)	IC50, cell viability 72 h (Crizotinib)	IC50, cell viability 72 h (Savolitinib)	IC50, cell viability 72 h (AZD6738)	IC50, cell viability 72 h (AZD5991)	IC50, cell viability 72 h (AZD7648)	IC50, cell viability 72 h (Taselisib)	IC50, cell viability 72 h (Selumetinib)	IC50, cell viability 72 h (Olaparib)	IC50, cell viability 72 h (MK-2206)
MS751 (Cervical Carcinoma)	> 10 µM	1620 nM	> 1000 nM	> 10 µM	> 300 nM	> 1000 nM	> 2000 nM	> 1 nM	> 1000 nM	36.8 nM	> 3000 nM	> 1000 nM	1.13 µM	> 10 µM	> 1000 nM	> 1000 nM	200 nM	> 10 µM	> 3000 nM	> 10 µM	> 1000 nM	> 10 µM	222 nM	> 10 µM	> 10 µM	> 10 µM	> 10 µM	
PANC-08-13 (Pancreatic Carcinoma)	> 10 µM	> 3000 nM	> 1000 nM	> 10 µM	> 300 nM	> 1000 nM	> 2000 nM	> 1 nM	> 1000 nM	> 300 nM	> 3000 nM	> 1000 nM	> 10 µM	> 10 µM	460 nM	> 1000 nM	350 nM	> 10 µM	> 3000 nM	> 10 µM	> 1000 nM	> 10 µM	> 1000 nM	> 10 µM	6.44 µM	> 10 µM	> 10 µM	
SU-DHL-8 (B-Cell Non-Hodgkin's Lymphoma)	> 10 µM	155 nM	> 1000 nM	> 10 µM	> 300 nM	> 1000 nM	> 2000 nM	> 1 nM	> 1000 nM	3.04 nM	> 3000 nM	38.7 nM	6.6 µM	> 10 µM	7.48 nM	107 nM	684 nM	> 10 µM	> 3000 nM	> 10 µM	> 1000 nM	2.06 µM	144 nM	> 10 µM	> 10 µM	> 10 µM	> 10 µM	
TC-71 (Ewing's Sarcoma)	> 10 µM	1310 nM	> 1000 nM	> 10 µM	> 300 nM	> 1000 nM	> 2000 nM	> 1 nM	114 nM	2.21 nM	> 3000 nM	278 nM	1.03 µM	> 10 µM	50.4 nM	812 nM	224 nM	> 10 µM	> 3000 nM	6.7 µM	> 1000 nM	2.74 µM	> 1000 nM	> 10 µM	4.2 µM	> 10 µM	> 10 µM	> 10 µM
TE-6 (Esophageal Squamous Cell Carcinoma)	2.84 µM	> 3000 nM	> 1000 nM	> 10 µM	> 300 nM	> 1000 nM	> 2000 nM	> 1 nM	> 1000 nM	> 300 nM	> 3000 nM	> 1000 nM	6 µM	1.75 µM	893 nM	> 1000 nM	396 nM	3.4 µM	> 3000 nM	> 10 µM	> 1000 nM	9.32 µM	940 nM	> 10 µM	0.245 µM	> 10 µM	> 10 µM	6.61 µM
TOV-112D (Ovarian Carcinoma)	> 10 µM	1260 nM	> 1000 nM	> 10 µM	> 300 nM	> 1000 nM	> 2000 nM	> 1 nM	> 1000 nM	8.03 nM	> 3000 nM	> 1000 nM	4.32 µM	> 10 µM	353 nM	262 nM	298 nM	> 10 µM	> 3000 nM	> 10 µM	> 1000 nM	6.94 µM	> 1000 nM	> 10 µM	> 10 µM	> 10 µM	> 10 µM	
U251 (Low Grade Glioma)	> 10 µM	> 3000 nM	> 1000 nM	> 10 µM	> 300 nM	> 1000 nM	> 2000 nM	> 1 nM	> 1000 nM	13.1 nM	> 3000 nM	> 1000 nM	> 10 µM	> 10 µM	323 nM	> 1000 nM	> 1000 nM	> 10 µM	> 3000 nM	> 10 µM	> 1000 nM	> 10 µM	> 1000 nM	> 10 µM	> 10 µM	> 10 µM	> 10 µM	> 10 µM
